Test results taken from patent US5292742A, “Angiotensin II receptor blocking 2,3,6 substituted quinazolinones” (American Cyanamid Company, priority 1993, dated 1994).
Several values for one entry are separate records, joined by “and”; a condition that tells them apart may be missing. Identical values can stand only once.

Test system: angiotensin II (AII) vasopressor response
Assay: AII challenge: inhibition of angiotensin II vasopressor response in conscious spontaneously hypertensive rats
Type: in vivo, rat (Okamoto-Aoki SHR)
Details: 3 mg/kg IV; for % Inhibition (angiotensin blockage) of AII vasopressor response / Average Change (increase in systolic blood pressure after AII): SHR n = 2; for Change (increase in systolic blood pressure after AII), individual rat / Response After AII (systolic blood pressure), individual rat / Control Before AII (systolic blood pressure), individual rat: individual SHR
From the text: By administering a compound of this invention to a rat, and then challenging with angiotensin II, a blockage of the vasopressor response is realized.
Conscious Male Okamoto-Aoki SHR, 16-20 weeks old, weighing approximately 330 g are purchased from Charles River Labs (Wilmington, Mass.). Conscious rats are restrained in a supine position with elastic tape. The area at the base of the tail is locally anesthetized by subcutaneous infiltration with 2% procaine. The ventral caudal artery and vein are isolated, and a cannula made of polyethylene (PE) 10-20 tubing (fused together by heat) is passed into the lower abdominal aorta and vena cava, respectively. The cannula is secured, heparinized (1,000 I.U./ml), sealed and the wound is closed. The animals are placed in plastio restraininq cages in an upright position. The cannula is attached to a Statham P23Db pressure transducer, and pulsatile blood pressure is recorded to 10-15 minutes with a Gould Brush recorder. (Chan et al., (Drug Development Res., 18:75-94, 1989).
Angiotensin II (human sequence, Sigma Chem. Co., St. Louis, Mo.) of 0.05 and 0.1 mcg/kg i.v. is injected into all rats (predosing response). Then a test compound, vehicle or a known angiotensin II antagonist is administered i.v., i.p. or orally to each set of rats. The two doses of angiotensin II are given to each rat again at 30, 60, 90, 120, 180, 240 and 300 minutes post dosing the compound or vehicle. The vasopressor response of angiotensin II is measured for the increase in systolic blood pressure in mmHg. The percentage of antagonism or blockade of the vasopressor response of angiotensin II by a compound is calculated using the vasopressor response (increase in systolic blood pressure) of angiotensin II of each rat predosing the compound as 100%. A compound is considered active if at 30 mg/kg i.v. it antagonized at least 50% of the response.

[1] = AII 0.05 mcg/kg IV, 30 min post dose
[2] = AII 0.05 mcg/kg IV, 60 min post dose
[3] = AII 0.05 mcg/kg IV, 90 min post dose
[4] = AII 0.05 mcg/kg IV, 120 min post dose
[5] = AII 0.05 mcg/kg IV, 180 min post dose
[6] = AII 0.05 mcg/kg IV, 240 min post dose
[7] = AII 0.05 mcg/kg IV, 300 min post dose
[8] = AII 0.1 mcg/kg IV, 30 min post dose
[9] = AII 0.1 mcg/kg IV, 60 min post dose
[10] = AII 0.1 mcg/kg IV, 90 min post dose
[11] = AII 0.1 mcg/kg IV, 120 min post dose
[12] = AII 0.1 mcg/kg IV, 180 min post dose
[13] = AII 0.1 mcg/kg IV, 240 min post dose
[14] = AII 0.1 mcg/kg IV, 300 min post dose

CCCCc1nc2ccc(C3=NN4CCCC4C3)cc2c(=O)n1Cc1ccc(-c2ccccc2-c2nnn[nH]2)cc1 (stereo not shown) [Example 10, 2-Butyl-6-(3a,4,5,6-tetrahydro-3H-pyrrolo[1,2-b]-pyrazol-2-yl)-3-[[2'-(1H-tetrazol-5-yl)[1,1'-biphenyl]-4-yl]methyl]-4(3H)-quinazolinone]
% Inhibition (angiotensin blockage) of AII vasopressor response [1]: 61%
Average Change (increase in systolic blood pressure after AII) [1]: 13.5 mmHg
Change (increase in systolic blood pressure after AII), individual rat [1]: 12 mmHg and 15 mmHg
% Inhibition (angiotensin blockage) of AII vasopressor response [2]: 7%
Average Change (increase in systolic blood pressure after AII) [2]: 32.5 mmHg
Change (increase in systolic blood pressure after AII), individual rat [2]: 30 mmHg and 35 mmHg
% Inhibition (angiotensin blockage) of AII vasopressor response [3]: 43%
Average Change (increase in systolic blood pressure after AII) [3]: 20 mmHg
Change (increase in systolic blood pressure after AII), individual rat [3]: 30 mmHg and 10 mmHg
% Inhibition (angiotensin blockage) of AII vasopressor response [4]: 43%
Average Change (increase in systolic blood pressure after AII) [4]: 20 mmHg
Change (increase in systolic blood pressure after AII), individual rat [4]: 25 mmHg and 15 mmHg
% Inhibition (angiotensin blockage) of AII vasopressor response [5]: 36%
Average Change (increase in systolic blood pressure after AII) [5]: 22.5 mmHg
Change (increase in systolic blood pressure after AII), individual rat [5]: 25 mmHg and 20 mmHg
% Inhibition (angiotensin blockage) of AII vasopressor response [6]: 50%
Average Change (increase in systolic blood pressure after AII) [6]: 17.5 mmHg
Change (increase in systolic blood pressure after AII), individual rat [6]: 20 mmHg and 15 mmHg
% Inhibition (angiotensin blockage) of AII vasopressor response [7]: 7%
Average Change (increase in systolic blood pressure after AII) [7]: 32.5 mmHg
Change (increase in systolic blood pressure after AII), individual rat [7]: 35 mmHg and 30 mmHg
% Inhibition (angiotensin blockage) of AII vasopressor response [8]: 55%
Average Change (increase in systolic blood pressure after AII) [8]: 22.5 mmHg
Change (increase in systolic blood pressure after AII), individual rat [8]: 20 mmHg and 25 mmHg
% Inhibition (angiotensin blockage) of AII vasopressor response [9]: 55%
Average Change (increase in systolic blood pressure after AII) [9]: 22.5 mmHg
Change (increase in systolic blood pressure after AII), individual rat [9]: 25 mmHg and 20 mmHg
% Inhibition (angiotensin blockage) of AII vasopressor response [10]: 50%
Average Change (increase in systolic blood pressure after AII) [10]: 25 mmHg
Change (increase in systolic blood pressure after AII), individual rat [10]: 25 mmHg
% Inhibition (angiotensin blockage) of AII vasopressor response [11]: 50%
Average Change (increase in systolic blood pressure after AII) [11]: 25 mmHg
Change (increase in systolic blood pressure after AII), individual rat [11]: 30 mmHg and 20 mmHg
% Inhibition (angiotensin blockage) of AII vasopressor response [12]: 45%
Average Change (increase in systolic blood pressure after AII) [12]: 27.5 mmHg
Change (increase in systolic blood pressure after AII), individual rat [12]: 30 mmHg and 25 mmHg
% Inhibition (angiotensin blockage) of AII vasopressor response [13]: 50%
Average Change (increase in systolic blood pressure after AII) [13]: 25 mmHg
Change (increase in systolic blood pressure after AII), individual rat [13]: 25 mmHg
% Inhibition (angiotensin blockage) of AII vasopressor response [14]: 30%
Average Change (increase in systolic blood pressure after AII) [14]: 35 mmHg
Change (increase in systolic blood pressure after AII), individual rat [14]: 45 mmHg and 25 mmHg
Response After AII (systolic blood pressure), individual rat (after AII 0.05 mcg/kg IV, 30 min post dose): 242 mmHg and 255 mmHg
Response After AII (systolic blood pressure), individual rat (after AII 0.05 mcg/kg IV, 60 min post dose): 255 mmHg and 270 mmHg
Response After AII (systolic blood pressure), individual rat (after AII 0.05 mcg/kg IV, 90 min post dose): 255 mmHg and 250 mmHg
Response After AII (systolic blood pressure), individual rat (after AII 0.05 mcg/kg IV, 120 min post dose): 250 mmHg and 230 mmHg
Response After AII (systolic blood pressure), individual rat (after AII 0.05 mcg/kg IV, 180 min post dose): 235 mmHg
Response After AII (systolic blood pressure), individual rat (after AII 0.05 mcg/kg IV, 240 min post dose): 230 mmHg and 235 mmHg
Response After AII (systolic blood pressure), individual rat (after AII 0.05 mcg/kg IV, 300 min post dose): 250 mmHg and 245 mmHg
Response After AII (systolic blood pressure), individual rat (after AII 0.1 mcg/kg IV, 30 min post dose): 250 mmHg and 260 mmHg
Response After AII (systolic blood pressure), individual rat (after AII 0.1 mcg/kg IV, 60 min post dose): 255 mmHg and 260 mmHg
Response After AII (systolic blood pressure), individual rat (after AII 0.1 mcg/kg IV, 90 min post dose): 265 mmHg and 260 mmHg
Response After AII (systolic blood pressure), individual rat (after AII 0.1 mcg/kg IV, 120 min post dose): 265 mmHg and 240 mmHg
Response After AII (systolic blood pressure), individual rat (after AII 0.1 mcg/kg IV, 180 min post dose): 245 mmHg and 250 mmHg
Response After AII (systolic blood pressure), individual rat (after AII 0.1 mcg/kg IV, 240 min post dose): 250 mmHg and 240 mmHg
Response After AII (systolic blood pressure), individual rat (after AII 0.1 mcg/kg IV, 300 min post dose): 255 mmHg and 250 mmHg
Control Before AII (systolic blood pressure), individual rat (before AII 0.05 mcg/kg IV, 30 min post dose): 230 mmHg and 240 mmHg
Control Before AII (systolic blood pressure), individual rat (before AII 0.05 mcg/kg IV, 60 min post dose): 225 mmHg and 235 mmHg
Control Before AII (systolic blood pressure), individual rat (before AII 0.05 mcg/kg IV, 90 min post dose): 225 mmHg and 240 mmHg
Control Before AII (systolic blood pressure), individual rat (before AII 0.05 mcg/kg IV, 120 min post dose): 225 mmHg and 215 mmHg
Control Before AII (systolic blood pressure), individual rat (before AII 0.05 mcg/kg IV, 180 min post dose): 210 mmHg and 215 mmHg
Control Before AII (systolic blood pressure), individual rat (before AII 0.05 mcg/kg IV, 240 min post dose): 210 mmHg and 220 mmHg
Control Before AII (systolic blood pressure), individual rat (before AII 0.05 mcg/kg IV, 300 min post dose): 215 mmHg
Control Before AII (systolic blood pressure), individual rat (before AII 0.1 mcg/kg IV, 30 min post dose): 230 mmHg and 235 mmHg
Control Before AII (systolic blood pressure), individual rat (before AII 0.1 mcg/kg IV, 60 min post dose): 230 mmHg and 240 mmHg
Control Before AII (systolic blood pressure), individual rat (before AII 0.1 mcg/kg IV, 90 min post dose): 240 mmHg and 235 mmHg
Control Before AII (systolic blood pressure), individual rat (before AII 0.1 mcg/kg IV, 120 min post dose): 235 mmHg and 220 mmHg
Control Before AII (systolic blood pressure), individual rat (before AII 0.1 mcg/kg IV, 180 min post dose): 215 mmHg and 225 mmHg
Control Before AII (systolic blood pressure), individual rat (before AII 0.1 mcg/kg IV, 240 min post dose): 225 mmHg and 215 mmHg
Control Before AII (systolic blood pressure), individual rat (before AII 0.1 mcg/kg IV, 300 min post dose): 210 mmHg and 225 mmHg
